{"source": "patent US20220378707A1", "about": "“1-(((2S,3S,4S)-3-ETHYL-4-FLUORO-5-OXOPYRROLIDIN-2-YL)METHOXY)-7-METHOXYISOQUINOLINE-6-CARBOXAMIDE COMBINATIONS AND ORAL DOSAGE FORMS” (Pfizer Inc., priority 2019, published 2022)", "key": {"[1]": {"tested_on": "CD19+B cells and PBMC+(α-IgM and TCR ligands)", "assay": "BioMAP BT system", "format": "cell-based, human", "settings": "for Inhibition of biomarker readouts in the BT system / Increased biomarker readouts in the BT system: T cell dependent B cell activation; for Inhibition of biomarker readouts in the BT system: concentrations of FIGS. 12-14; for Increased biomarker readouts in the BT system: tofacitinib 37-1000 nM", "excerpt": "(§1) The BioMAP systems consist of human primary cell-based systems designed to model different aspects of the human body in an in vitro format. The 12 systems tested characterized the test compounds across a broad set of systems modeling various human disease states. BioMAP systems were constructed with one or more primary cell types from healthy human donors, with stimuli (such as cytokines or growth factors) added to capture relevant signaling networks that naturally occur in human tissue or pathological conditions. Vascular biology was modeled in both a Th1 (3C system) and a Th2 (4H system) inflammatory environment, as well as in a Th1 inflammatory state specific to arterial smooth muscle cells (CASM3C system). Additional systems recapitulated aspects of the systemic immune response that included monocyte-driven Th1 inflammation (LPS system) or T cell stimulation (SAg system), chronic Th1 inflammation driven by macrophage activation (IMphg system) and the T cell-dependent activation of B cells that occurs in germinal centers (BT system). The BE3C system (Th1) and the BF4T system (Th2) represented airway inflammation of the lung, while the MyoF system modeled myofibroblast-lung tissue remodeling. Lastly, skin biology was addressed in the KF3CT system modeled Th1 cutaneous inflammation and the HDF3CGF system modeled wound healing.\n(§2) All cells were from a pool of multiple donors (n=2-6), commercially purchased and handled according to the recommendations of the manufacturers. Human blood derived CD14+ monocytes were differentiated into macrophages in vitro before being added to the IMphg system. Abbreviations were used as follows: human umbilical vein endothelial cells (HUVEC), peripheral blood mononuclear cells (PBMC), human neonatal dermal fibroblasts (HDFn), B cell receptor (BCR), T cell receptor (TCR) and toll-like receptor (TLR). Cell types and stimuli used in each system were as follows:\n(§3) 3C system [HUVEC+(IL-1β, TNFα and IFNγ)]; 4H system [HUVEC+(IL-4 and histamine)]; LPS system [PBMC and HUVEC+LPS (TLR4 ligand)]; SAg system [PBMC and HUVEC+T cell receptor (TCR) ligands]; BT system [CD19+B cells and PBMC+(α-IgM and TCR ligands)]; BF4T system [bronchial epithelial cells and HDFn+(TNFα and IL-4)]; BE3C system [bronchial epithelial cells+(IL-1p, TNFα and IFNγ)]; CASM3C system [coronary artery smooth muscle cells+(IL-1p, TNFα and IFNγ)]; HDF3CGF system [HDFn+(IL-1β, TNFα, IFNγ, EGF, bFGF and PDGF-BB)]; KF3CT system [keratinocytes and HDFn+(IL-1β, TNFα and IFNγ)]; MyoF system [differentiated lung myofibroblasts+(TNFα and TGFβ)]; and IMphg system [HUVEC and M1 macrophages+Zymosan (TLR2 ligand)].\n(§4) Systems were derived from either single cell types or co-culture systems. Adherent cell types were cultured in 96 or 384-well plates until confluence, followed by the addition of PBMC (SAg and LPS systems). The BT system consisted of CD19+B cells co-cultured with PBMC and stimulated with a BCR activator and low levels of TCR stimulation. Test agents were prepared in DMSO (final concentration <0.1%) and were added 1 hour before stimulation, and remained in culture for 24 hours or as otherwise indicated (48-hrs, MyoF system; 72-hrs, BT system (soluble readouts); 168-hrs, BT system (secreted IgG)). Each plate contained drug controls (e.g., legacy control test agent colchicine at 1.1 μM), negative controls (e.g., non-stimulated conditions) and vehicle controls (e.g., 0.1% DMSO) appropriate for each system. Direct ELISA was used to measure biomarker levels of cell-associated and cell membrane targets. Soluble factors from supernatants were quantified using either HTRF® detection, bead-based multiplex immunoassay or capture ELISA. Overt adverse effects of test agents on cell proliferation and viability (cytotoxicity) were detected by sulforhodamine B (SRB) staining, for adherent cells, and alamarBlue® reduction for cells in suspension. […]"}, "[2]": {"tested_on": "human primary cell-based systems", "assay": "BioMAP panel of 12 systems", "settings": "for Number of annotated readouts with activity / Overt cytotoxicity on primary human cell types: 12 tissue and disease models; for Immunomodulatory activities: Decreased Activity / Inflammation-related activities: Decreased Activity: PF-06651600 200-5400 nM", "excerpt": "as §1, §2, §3, §4"}, "[3]": {"tested_on": "HUVEC+(IL-1β, TNFα and IFNγ)", "assay": "BioMAP 3C system", "format": "cell-based, human", "settings": "agent alone; PF-06650833 19, 56, 170, 500 nM; tofacitinib 37, 110, 330, 1000 nM", "excerpt": "The BioMAP systems consist of human primary cell-based systems designed to model different aspects of the human body in an in vitro format. The 12 systems tested characterized the test compounds across a broad set of systems modeling various human disease states. BioMAP systems were constructed with one or more primary cell types from healthy human donors, with stimuli (such as cytokines or growth factors) added to capture relevant signaling networks that naturally occur in human tissue or pathological conditions. Vascular biology was modeled in both a Th1 (3C system) and a Th2 (4H system) inflammatory environment, as well as in a Th1 inflammatory state specific to arterial smooth muscle cells (CASM3C system). […]\n(§5) Systems were derived from either single cell types or co-culture systems. […] Test agents were prepared in DMSO (final concentration <0.1%) and were added 1 hour before stimulation, and remained in culture for 24 hours or as otherwise indicated (48-hrs, MyoF system; 72-hrs, BT system (soluble readouts); 168-hrs, BT system (secreted IgG)). […] Soluble factors from supernatants were quantified using either HTRF® detection, bead-based multiplex immunoassay or capture ELISA. Overt adverse effects of test agents on cell proliferation and viability (cytotoxicity) were detected by sulforhodamine B (SRB) staining, for adherent cells, and alamarBlue® reduction for cells in suspension."}, "[4]": {"tested_on": "HDFn+(IL-1β, TNFα, IFNγ, EGF, bFGF and PDGF-BB)", "assay": "BioMAP HDF3CGF system", "format": "cell-based, human", "settings": "for Inhibition of biomarker readouts in the HDF3CGF system: wound healing, Th1-type inflammation, concentrations of FIGS. 12-16", "excerpt": "as §1, §2, §3\nas §5, with “systems. Adherent cell types were cultured in 96 or 384-well plates until confluence, followed by the addition of PBMC (SAg and LPS systems).” for “systems.”"}, "[5]": {"tested_on": "PBMC and HUVEC+T cell receptor (TCR) ligands", "assay": "BioMAP SAg system", "format": "cell-based, human", "settings": "for Inhibition of biomarker readouts in the SAg system: T cell-driven Th1 vascular inflammation, concentrations of FIGS. 12-16", "excerpt": "as §1, §2, §3\nSystems were derived from either single cell types or co-culture systems. Adherent cell types were cultured in 96 or 384-well plates until confluence, followed by the addition of PBMC (SAg and LPS systems). The BT system consisted of CD19+B cells co-cultured with PBMC and stimulated with a BCR activator and low levels of TCR stimulation. Test agents were prepared in DMSO (final concentration <0.1%) and were added 1 hour before stimulation, and remained in culture for 24 hours or as otherwise indicated (48-hrs, MyoF system; 72-hrs, BT system (soluble readouts); 168-hrs, BT system (secreted IgG)). Each plate contained drug controls (e.g., legacy control test agent colchicine at 1.1 μM), negative controls (e.g., non-stimulated conditions) and vehicle controls (e.g., 0.1% DMSO) appropriate for each system. Direct ELISA was used to measure biomarker levels of cell-associated and cell membrane targets. Soluble factors from supernatants were quantified using either HTRF® detection, bead-based multiplex immunoassay or capture ELISA. Overt adverse effects of test agents on cell proliferation and viability (cytotoxicity) were detected by sulforhodamine B (SRB) staining, for adherent cells, and alamarBlue® reduction for cells in suspension."}, "[6]": {"settings": "PF-06650833 19-500 nM, tofacitinib 37-1000 nM"}, "[7]": {"settings": "BioMAP profile, PF-06650833 19-500 nM, tofacitinib 37-1000 nM"}, "[8]": {"settings": "BioMAP profile, tofacitinib 37-1000 nM"}}, "note": "Entries after “also recorded” stand apart in the source; their conditions may differ."}
{"smiles": "CC[C@@H]1[C@H](F)C(=O)N[C@@H]1COc1nccc2cc(C(N)=O)c(OC)cc12", "note": "[PF-06650833, 1-(((2S,3S,4S)-3-Ethyl-4-fluoro-5-oxopyrrolidin-2-yl)methoxy)-7-methoxyisoquinoline-6-carboxamide]", "values": [{"measurement": "Inhibition of biomarker readouts in the BT system", "setting": "[1]; listed as 1-(((2S,3S,4S)-3-Ethyl-4-fluoro-5-oxopyrrolidin-2-yl)methoxy)-7-methoxyisoquinol", "value": "little effect; also recorded: modest inhibition of IL-6 and sIL-17F"}, {"measurement": "Inhibition of biomarker readouts in the BT system", "setting": "[1]; listed as 1-(((2S,3S,4S)-3-ethyl-4-fluoro-5-oxopyrrolidin-2-yl)methoxy)-7-methoxyisoquinol", "value": "sIL-17F and sTNFα"}, {"measurement": "Number of annotated readouts with activity", "setting": "[2]; [6]", "value": 14}, {"measurement": "Overt cytotoxicity on primary human cell types", "setting": "[2]; [6]", "value": "no evidence of overt cytotoxicity"}, {"measurement": "Immunomodulatory activities: Decreased Activity", "setting": "[2]; [7]", "value": "decreased CD40, CD69, M-CSF, secreted IL-17F; also recorded: CD40, CD69, M-CSF, *sIL-17F"}, {"measurement": "Inflammation-related activities: Decreased Activity", "setting": "[2]; [7]", "value": "decreased E-selectin, MCP-1, VCAM-1, IL-6, IL-8, IL-1α, secreted TNFα, secreted PGE2; also recorded: MCP-1, VCAM-1, E-selectin, IL-6, IL-8, IL-1α, *sTNFα, *sPGE2"}, {"measurement": "Additional activities in the BioMAP systems", "setting": "[2]; PF-06650833 19-500 nM", "value": "modest effects in BT and CASM3C systems and concentration-related decreases in secreted IL-17F and inhibition of secreted TNFα and IL-6 at the higher two concentrations only"}, {"measurement": "Antiproliferative effect on primary cell types", "setting": "[2]; [6]", "value": "no antiproliferative effect"}, {"measurement": "Activity in the 3C system", "setting": "[3]", "value": "no activity"}, {"measurement": "MIG, Log10 molar ratio in the HDF3CGF system", "setting": "[4]; PF-06650833 at 170 nM alone", "value": "−0.04121"}, {"measurement": "Inhibition of biomarker readouts in the HDF3CGF system", "setting": "[4]", "value": "modest inhibition VCAM-1, Col-III, and TIMP2"}, {"measurement": "Inhibition of biomarker readouts in the SAg system", "setting": "[5]", "value": "no activity"}]}
{"smiles": "C[C@@H]1CCN(C(=O)CC#N)C[C@@H]1N(C)c1ncnc2[nH]ccc12", "note": "[tofacitinib, 3-((3R,4R)-4-Methyl-3-(methyl(7H-pyrrolo[2,3-d]pyrimidin-4-yl)amino)piperidin-1-yl)-3-oxopropanenitrile]", "values": [{"measurement": "Inhibition of biomarker readouts in the BT system", "setting": "[1]", "value": "sIgG, sIL-17F, sIL-2, IL-6, and sTNFα; also recorded: strongly inhibited responses"}, {"measurement": "Inhibition of biomarker readouts in the BT system", "setting": "[1]; listed as Tofacitinib", "value": "active over all tested concentrations; also recorded: sIgG, sIL-17F, sIL-6, and sTNFα"}, {"measurement": "Increased biomarker readouts in the BT system", "setting": "[1]", "value": "increase in secreted IL-2"}, {"measurement": "Increased biomarker readouts in the BT system", "setting": "[1]; listed as Tofacitinib", "value": "sIL-2"}, {"measurement": "B cell proliferation in the BT system", "setting": "[1]; concentrations of FIGS. 13-14", "value": "B cell anti-proliferative activity"}, {"measurement": "Number of annotated readouts with activity", "setting": "[2]; [6]", "value": 21}, {"measurement": "Overt cytotoxicity on primary human cell types", "setting": "[2]; [6]", "value": "no evidence of overt cytotoxicity"}, {"measurement": "Immunomodulatory activities: Decreased Activity", "setting": "[2]; [7]", "value": "decreased secreted IgG, CD38, secreted IL-6, CD69, secreted IL-17F; also recorded: *sIL-6, *sIL-17F; also recorded: CD38, CD69, *sIgG,"}, {"measurement": "Inflammation-related activities: Decreased Activity", "setting": "[2]; [7]", "value": "decreased Eotaxin 3, MCP-1, VCAM-1, I-TAC, MIG, P-selectin; also recorded: MCP-1, Eot3,; also recorded: ITAC, MIG"}, {"measurement": "Immunomodulatory activities: Increased Activity", "setting": "[2]; [8]", "value": "increased secreted IL-2; also recorded: *sIL-2"}, {"measurement": "Inflammation-related activities: Increased Activity", "setting": "[2]; [8]", "value": "increased IL-1α, secreted PGE2; also recorded: *sPGE2"}, {"measurement": "Inflammation-related activities: Modulated Activity", "setting": "[2]; [8]", "value": "modulated secreted TNFα; also recorded: *sTNFα"}, {"measurement": "Tissue remodeling activities: Increased Activity", "setting": "[2]; [8]", "value": "increased MMP-9 and MMP9"}, {"measurement": "Antiproliferative effect on primary cell types", "setting": "[2]; [6]", "value": "selectively antiproliferative to T cells"}, {"measurement": "Cytostatic effect on B cells, vascular cell types or fibroblasts", "setting": "[2]; tofacitinib 37-1000 nM", "value": "no cytostatic effect"}, {"measurement": "Activity in the 3C system", "setting": "[3]", "value": "no activity"}, {"measurement": "Inhibition of biomarker readouts in the HDF3CGF system", "setting": "[4]", "value": "ITAC and VCAM-1"}, {"measurement": "Inhibition of biomarker readouts in the HDF3CGF system", "setting": "[4]; listed as Tofacitinib", "value": "VCAM-1 and ITAC"}, {"measurement": "Inhibition of biomarker readouts in the SAg system", "setting": "[5]", "value": "CD38 and CD69 and modestly inhibited CD69"}, {"measurement": "Inhibition of biomarker readouts in the SAg system", "setting": "[5]; listed as Tofacitinib", "value": "CD38 and CD69"}, {"measurement": "Proliferation of T cells in the SAg system", "setting": "[5]; concentrations of FIGS. 13-14", "value": "antiproliferative activity"}]}
